The source made the active and inactive calls.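 The calls were made as follows: active = at least 15% inhibition at the top concentration together with an EC50 under 10 microM; inactive = the rest.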

The text below walks through data of PubChem BioAssay AID652101 (NMMLSC, 2013).

Tested on in the first experiment: not listed separately
The experiment can be described thus: potency against LAMP-1 externalization in TALL-104 – TALL-104 cells, flow cytometry, CherryPick01, dose response (AID 652101).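 As to inhibition: 0% = stimulated DMSO control and 100% = unstimulated control wells.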 Conditions: TALL-104 lytic granule exocytosis, LAMP-1 flow cytometry; at 15.1 µM (top of the series). For orientation: A flow cytometer gives signals particle by particle.
For `Cc1cccc(C)c1-n1nnnc1C(CCc1ccccc1)N1CCC(n2c(=O)[nH]c3ccccc32)CC1` (stereo not given), the inhibition was 94.8% (inactive).

Turning to `CCOC(=O)[C@]12Cc3cc(Cl)ccc3[C@H]1N(C1CCCCC1)C(=O)c1cc(OC)ccc12`, the inhibition was 102% (inactive).

The same experiment, now with this note: TALL-104 lytic granule exocytosis, LAMP-1 flow cytometry; at 15.1 µM (top of the series); stimulated with 1 µM thapsigargin, 50 nM PMA.
Turning to `O=[N+]([O-])c1ccc2nc(/C=C/c3ccc(Cl)cc3)[nH]c2c1`, the inhibition is 98.6% (inactive). The same measure, in the same setting: the value for `O=C(Nc1ccc2nc(-c3cccs3)c(-c3cccs3)nc2c1)N1CCOCC1` was -2.59% (inactive). The same measure, in the same setting: as for `O=C(CCN1CCc2ccccc2CC1)c1ccc2c(c1)OCCO2`, the figure is 73.6% (inactive). `CN(C)CCC(=O)c1ccc2c(c1)OCO2`: the inhibition is 103% (inactive). `Oc1ccccc1Nc1nc(NCc2ccccc2)c2ccccc2n1`: the inhibition was 90.6% (inactive). With `CCOc1ccccc1CNC(=O)C1CCN(c2nnc(C)c3c(C)n(-c4ccc(C)cc4)nc23)CC1`, the inhibition was 59.4% (inactive). Turning to `Cc1ccc(Cl)cc1-c1cc(C(=O)NCc2ccc(C(F)(F)F)cc2)[nH]n1`, the inhibition is 103% (inactive). Take `COC(=O)c1ccc(CCc2cc(O)c(Br)cc2O)cc1`: the inhibition is 108% (inactive). The same measure, in the same setting: the value for `CN(c1ccccc1)S(=O)(=O)c1cccc(C(=O)NCCc2c[nH]c3ccccc23)c1` was 42.1% (inactive). On the same count and under the same terms, as for `O=c1c2cc(F)ccc2sn1-c1ccccc1Cl`, the figure is 95.2% (inactive). Still for that read-out and setting: the value for `c1ccc(CCNc2ccnc3cc4ccccc4cc23)cc1` was 90.2% (inactive).

For `COc1ccc(-c2cc(NC(C)=O)c3ncc(-c4ccccc4)n3c2)c(OC)c1`, the inhibition is 106% (inactive). Regarding `COc1ccc(Cl)c(-c2cc(C(=O)NCc3ccc(C(F)(F)F)cc3)[nH]n2)c1`, the inhibition is 103% (inactive). For the molecule `CCOC(=O)c1ccc(NC(=O)c2ccc(C)c(S(=O)(=O)N3CCOCC3)c2)cc1`, the inhibition was 102% (inactive). With `Cc1cc(C(=O)CSc2nc3ccccc3[nH]2)c(C)n1CC1CCCO1` (stereo not given), the inhibition was 89.3% (inactive). With `CCOC(=O)c1c(NC(C)=O)sc2c(OCC(O)CN(CC)CC)c(Br)ccc12` (stereo not given), the inhibition was 88.2% (inactive). With `O=c1c2ccc(F)cc2sn1-c1ccccc1`, the inhibition was 75.9% (inactive). For `COC(=O)c1ccc(N2CCN(C)CC2)c(NC(=O)c2sc3ccccc3c2Cl)c1`, the inhibition is 70.3% (inactive).

For the molecule `COc1ccc(C2CC(c3cccs3)=NN2c2nc(C)c(C(C)=O)s2)cc1OC` (stereo not given), the inhibition was 2.08% (inactive). Same read-out and setting: the value for `Cc1cncn1CCc1nc2c3ccccc3nc(SCC(=O)Nc3cccc(Cl)c3)n2n1` was 104% (inactive). Regarding `CCC(=C(c1ccc(OC)cc1)c1ccc(OC)cc1)c1cn(CC(O)CN2CCN(C)CC2)c2ccccc12` (stereo not given), the inhibition was 87.4% (inactive). On to `COc1cc(-c2coc3c(C(=O)NCc4ccc(OC)c(OC)c4)cccc23)ccc1O`, for which the inhibition is 104% (inactive). As for `Cc1ccc2nc(-c3ccc(NC(=S)NC4CC(C)(C)NC(C)(C)C4)cc3)sc2c1`, the inhibition is 5.48% (inactive). `Cc1ccc2nc(-c3ccc(N4C(=O)CC(N5CCN(CCO)CC5)C4=O)cc3)sc2c1` (stereo not given): the inhibition is 83.1% (inactive). As to `COc1ccc2[nH]c3c(N4CCc5ccccc5C4)ncnc3c2c1`, the inhibition was 89.2% (inactive). In the case of `CN1CCN(c2cc(-c3ccccc3)nc3cc(-c4ccc(F)cc4)nn23)CC1`, the inhibition was 61.3% (inactive). Still for that read-out and setting: the value for `O=C(Nc1nc2ccccc2n1CCN1CCOCC1)c1ccc(COc2ccccc2Br)o1` was 102% (inactive); that for `CCCNC(=O)Cn1sc2nc(C)cc(C)c2c1=O` was 97.3% (inactive). With `C=CCNc1nc(NCc2ccc(N(C)C)cc2)c2sc(-c3ccccc3)cc2n1`, the inhibition is -13.9% (inactive). On the same count and under the same terms, as for `CC(C)c1ccccc1OCC(O)CN(CC(O)COc1cccc2ccccc12)C(C)C` (stereo not given), the figure is 101% (inactive); as for `CCc1ccc(CNC(=O)C2CCCN(c3nnc(C)c4c(C)n(-c5ccccc5)nc34)C2)cc1` (stereo not given), 97.2% (inactive). `CCOC(=O)c1c(C)oc2c1c(C(c1cccnc1)N1CCOCC1)c(O)c1ccccc12` (stereo not given): the inhibition was 95% (inactive). In the case of `O=C(COC(=O)[C@H](Cc1c[nH]c2ccccc12)NC(=O)c1ccc(Cl)cc1)Nc1ccc2c(c1)OCO2`, the inhibition is 108% (inactive).

The next experiment relates to TALL-104 lytic granule exocytosis, LAMP-1 flow cytometry. Described as above. Particulars: stimulated with 1 µM thapsigargin, 50 nM PMA.
On to `Fc1ccc(/C=C\c2nccc3c2[nH]c2ccccc23)cc1`, for which the concentration giving a half-maximal response (EC50) was 1.66 µM. Regarding `CC1=C(C)CS(=O)N(S(=O)(=O)c2ccc(Cl)cc2)C1` (stereo not given), the EC50 is 2.88 µM. Regarding `Cc1cc(N2CCN(c3nc(-c4ccc([N+](=O)[O-])cc4)cs3)CC2)c2ccccc2n1`, the EC50 is 1.62 µM. With `CN1CCN(Cc2nc3ccccc3c(=O)n2Cc2nc(-c3ccc([N+](=O)[O-])cc3)cs2)CC1`, the EC50 is 6.16 µM.

With `COc1ccccc1CNc1nc(NCc2ccc(C(C)C)cc2)c2sccc2n1`, the EC50 is 5.34 µM. Regarding `Cc1ccc(-n2nnc3c(=O)oc4ccccc4c32)cc1`, the EC50 was 2.46 µM.

Regarding `CCCCC[C@@H](C)N1C[C@@H](COCc2ccccc2)Oc2cc(N3CC[C@@H](N(C)C)C3)ccc2S1(=O)=O`, the EC50 was 4.57 µM. The same measure, in the same setting: as for `Cc1cc(C)c2nc(C)cc(N/N=C/c3ccc(O)cc3)c2c1`, the figure is 4.47 µM; as for `O=c1c2ccccc2sn1-c1ccccc1F`, 4.78 µM; as for `O=C(Cn1sc2ccccc2c1=O)Nc1ccc(F)cc1`, 5.2 µM. Regarding `CCN(CC)CCCNc1ccc(-c2nnc(-c3ccc(OCC(C)C)cc3)o2)cn1`, the EC50 was 2.35 µM. In the case of `COc1cccc(N2CCN(c3ncnc4c3[nH]c3ccc(F)cc34)CC2C)c1` (stereo not given), the EC50 is 1.33 µM. For the molecule `c1ccc(CNc2nc(NCC3CC3)nc3cc(-c4ccccc4)sc23)cc1`, the EC50 is 2.22 µM. Take `CCOC(=O)c1cc(-c2csc(Nc3c(C)cc(C)cc3C)n2)on1`: the EC50 is 3.44 µM. Regarding `O=C1C=CC(=O)N1N(c1ccccc1)c1ccccc1`, the EC50 was 5.02 µM. Take `COc1ccc(-n2sc3ccccc3c2=O)cc1`: the EC50 was 9 µM. On to `O=C(Cn1sc2ccccc2c1=O)NC12CC3CC(CC(C3)C1)C2`, for which the EC50 was 5.13 µM. Still for that read-out and setting: as for `COC(=O)c1c(NC(=O)c2nc3ccccc3s2)sc2c1CC(C)(C)NC2(C)C`, the figure is 6.27 µM. Turning to `N#Cc1c(Nc2ccccc2Cl)s[nH]c1=O`, the 50% effective concentration (EC50) was 3.82 µM.

As to `CCCCn1c(=N)n(CC(=O)c2ccc(Br)s2)c2ccccc21`, the EC50 was 3.99 µM. Take `O=S(=O)(c1ccccc1)c1nnn2c1nc(NC1CCN(Cc3ccccc3)CC1)c1cc(Cl)ccc12`: the EC50 is 4.22 µM.

Consider `COc1cccc(-c2cnc3c(NC(C)=O)cc(-c4ccsc4)cn23)c1`, for which the EC50 was 4.98 µM. Regarding `CCOc1ccc2nc(C)cc(Nc3cccc([N+](=O)[O-])c3)c2c1`, the EC50 was 6.14 µM.

In the case of `Cc1ccc(S(=O)(=O)n2ccc3c(OCCOCCNCc4ccc(F)cc4)cccc32)cc1`, the EC50 was 4.41 µM.

`CCOc1ccc2[nH]c3c(N4CCc5ccccc5C4)ncnc3c2c1`: the EC50 was 4.91 µM. Turning to `O=C1Nc2ccc(Br)cc2/C1=C/C(=O)c1ccccc1`, the EC50 was 3.13 µM.

Consider `COc1ccccc1CNc1nc(NCc2ccc3occc3c2)c2sccc2n1`, for which the EC50 is 4.23 µM. As for `CC1COCC(C)N1C1=C(Cl)C(=O)c2ccccc2C1=O` (stereo not given), the EC50 is 1.61 µM. For `COc1cccc(-c2cnc3c(NC(C)=O)cc(-c4ccccc4OC)cn23)c1`, the EC50 was 5.23 µM. Still for that read-out and setting: as for `CCc1ccc(/C=C2/Sc3ccccc3N(CC(=O)NCCCN3CCOCC3)C2=O)cc1`, the figure is 5.17 µM; as for `CC1=NOC(=O)/C1=C/c1ccc(-c2ccc(Cl)cc2)o1`, 1.68 µM. For `O=C(Nc1ccc(F)cc1)c1nc(S(=O)(=O)Cc2ccccc2)ncc1Cl`, the EC50 was 0.344 µM. In the case of `CN1Cc2c(N3CCOCC3)nc3sc(C(=O)c4ccc(Br)cc4)c(N)c3c2CC1(C)C`, the EC50 was 3.23 µM. Take `COc1ccc(N2C(=O)CC(Sc3nnc(-c4ccccc4)o3)C2=O)cc1` (stereo not given): the 50% effective concentration (EC50) is 0.897 µM. On to `O=c1c2ccccc2sn1-c1ccccc1`, for which the EC50 is 2.36 µM.

With `O=C(OCc1ccccc1)N(CCCCN(CCCNCc1ccccc1)C(=O)OCc1ccccc1)CCCNCc1ccccc1`, the EC50 was 1.24 µM.

Regarding `COc1cccc(NC(=O)Nc2nc(-c3ccc(OC)c(OC)c3)cs2)c1`, the EC50 is 4.83 µM. The same measure, in the same setting: the value for `CCCS(=O)(=O)Nc1ccc(Nc2c3ccccc3nc3ccccc23)c(OC)c1` was 3.38 µM.

For the molecule `CCCCCCSc1cccc(-c2nc3ccccn3c2NCc2ccccc2)c1`, the EC50 is 7.71 µM. On to `O=S(=O)(Nc1cc(Sc2ncn[nH]2)c(O)c2ccccc12)c1ccccc1`, for which the 50% effective concentration (EC50) is 2.91 µM.

For the molecule `O=C(CN1C(=O)/C(=C\c2cccc(Br)c2)Oc2ccccc21)NCCCN1CCOCC1`, the EC50 is 4.61 µM. As for `O=C1CC(Sc2nnnn2-c2ccccc2)C(=O)N1c1cccc(Cl)c1` (stereo not given), the EC50 was 0.289 µM. As for `Cc1ccc(Nc2nc(NCc3ccco3)c3ccccc3n2)cc1`, the EC50 is 4.7 µM. Consider `CCOC(=O)c1c(NC(=O)COc2ccccc2OCC)sc2c1CC(C)(C)NC2(C)C`, for which the EC50 was 1.2 µM. With `CCCCC[C@@H](C)N1C[C@@H](COCc2ccccc2)Oc2cc(N3CC[C@H](N(C)C)C3)ccc2S1(=O)=O`, the EC50 was 9.73 µM.

One may read the inhibition as the change of the read-out against control, counted positive when it falls. As a reminder, the EC50 is the concentration needed to bring the measured effect to its halfway point.
